According to paper PMC7997411, “Discovery and Optimization of Selective Inhibitors of Meprin α (Part II)” (Pharmaceuticals, 2021):
Several values for one entry are separate records, joined by “and”; a condition that tells them apart may be missing. Identical values can stand only once.

Experiments:
Type in all cases: biochemical
human meprin β = target: T1, human meprin β (Homo sapiens, UniProt Q16820); assay: Meprin β assay in a 384-well plate (fluorogenic substrate Mca-EDEDED-K(Dnp)); settings: for IC50: triplicate, ± SD
T1 construct: His-tag; made in house; host or cells: BTI-TN-5B1-4 insect cells (baculovirus, amplified in Sf9)
T1 sequence (Q16820 62-701): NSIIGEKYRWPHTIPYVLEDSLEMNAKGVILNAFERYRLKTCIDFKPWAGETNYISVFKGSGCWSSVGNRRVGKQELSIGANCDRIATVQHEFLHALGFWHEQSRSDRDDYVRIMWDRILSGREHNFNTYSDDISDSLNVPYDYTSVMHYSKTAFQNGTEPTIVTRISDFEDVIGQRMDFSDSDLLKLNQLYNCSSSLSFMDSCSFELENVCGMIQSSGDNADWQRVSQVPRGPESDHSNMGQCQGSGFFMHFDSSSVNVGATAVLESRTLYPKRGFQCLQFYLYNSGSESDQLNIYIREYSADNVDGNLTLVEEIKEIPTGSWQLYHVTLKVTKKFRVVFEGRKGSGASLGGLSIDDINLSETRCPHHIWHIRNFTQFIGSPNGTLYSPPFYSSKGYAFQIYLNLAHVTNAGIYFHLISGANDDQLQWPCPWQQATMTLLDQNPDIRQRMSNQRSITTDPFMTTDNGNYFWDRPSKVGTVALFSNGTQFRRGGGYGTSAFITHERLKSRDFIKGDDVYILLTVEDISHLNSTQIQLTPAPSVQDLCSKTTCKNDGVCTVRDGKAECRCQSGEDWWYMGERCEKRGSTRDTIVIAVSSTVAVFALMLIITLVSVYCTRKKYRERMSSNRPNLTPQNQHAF
Experimental: Recombinant human meprin α and meprin β were expressed using the Bac-to-Bac expression system (Gibco Life Technologies, Paisley, UK) as described before. Media and supplements were obtained from Gibco Life Technologies. Recombinant Baculoviruses were amplified in adherently growing Spodoptera frugiperda (Sf)9 insect cells at 27 °C in Grace’s insect medium supplemented with 10% fetal bovine serum, 50 units/mL penicillin, and 50 μg/mL streptomycin. Protein expression was performed in 500 mL suspension cultures of BTI-TN-5B1-4 insect cells growing in Express Five SFM supplemented with 4 mM glutamine, 50 units/mL penicillin, and 50 μg/mL streptomycin in Fernbach-flasks using a Multitron orbital shaker (INFORS AG, Bottmingen, Switzerland). Cells were infected at a density of 2 × 10^6 cells/mL with an amplified viral stock at a MOI of ~10. […] Meprins were activated by trypsin, which was removed afterwards by affinity chromatography using a column containing immobilized chicken ovomucoid, a trypsin inhibitor.
Both assays followed the same general protocol. […] After 30 min incubation at RT, the reactions were started by addition of 5 µL of 2× solutions of substrates (20 µM, meprin α Mca-YVADAPK-K(Dnp), and for meprin β Mca-EDEDED-K(Dnp)).

ADAM17 = target: T2, ADAM17 (Homo sapiens, UniProt P78536); assay: ADAM17 assay
T2 construct: purchased R&D Systems 930-ADB
T2 sequence (P78536 215-824): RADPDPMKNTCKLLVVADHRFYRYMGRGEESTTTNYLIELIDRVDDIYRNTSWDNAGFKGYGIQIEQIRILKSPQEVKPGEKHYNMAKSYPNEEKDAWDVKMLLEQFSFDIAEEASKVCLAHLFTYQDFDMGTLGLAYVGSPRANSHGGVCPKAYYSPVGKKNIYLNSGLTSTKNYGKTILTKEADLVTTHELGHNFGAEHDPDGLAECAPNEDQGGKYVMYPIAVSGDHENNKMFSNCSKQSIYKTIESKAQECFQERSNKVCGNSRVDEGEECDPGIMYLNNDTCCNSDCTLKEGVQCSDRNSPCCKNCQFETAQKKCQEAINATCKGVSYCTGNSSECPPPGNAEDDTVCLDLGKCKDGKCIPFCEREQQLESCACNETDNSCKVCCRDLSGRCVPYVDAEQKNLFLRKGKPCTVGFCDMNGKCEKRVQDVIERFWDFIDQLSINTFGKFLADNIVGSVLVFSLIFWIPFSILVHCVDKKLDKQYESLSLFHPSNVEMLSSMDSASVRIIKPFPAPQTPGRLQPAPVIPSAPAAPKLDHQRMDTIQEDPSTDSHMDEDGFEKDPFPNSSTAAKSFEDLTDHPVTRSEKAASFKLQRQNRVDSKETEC
Experimental: MMP-1, MMP-2, MMP-8, MMP-9, MMP-10, MMP-13, MMP-14, ADAM10, ADAM17 and Mca-KPLGL-Dpa-AR-NH2 fluorogenic peptide substrate were purchased from R&D Systems (cat # 901-MP, 902-MP, 908-MP, 911-MP, 910-MP, 511-MM, 918-MP, 936-AD, 930-ADB, and ES010, respectively). All common chemicals were purchased from Sigma. NFF449 was purchased from Tocris (cat# 1391) and actinonin was from Sigma-Aldrich, St. Louis, MO, USA (cat# 01809).
(§1) Both assays followed the same general protocol. 2.5 µL of 2× enzyme solution (20 nM) in assay buffer (10 mM HEPES, 0.001% Brij-35, pH 7.5) were added to solid bottom black 384 plates (Greiner, cat# 789075). Next, test compounds and pharmacological controls were added to corresponding wells using a 384-pin tool device (V&P Scientific, San Diego). After 30 min incubation at RT, the reactions were started by addition of 2.5 µL of 2× solutions of substrate (R&D Systems cat#: ES010, Mca-KPLGL-Dpa-AR-NH2, 20 µM). Reactions were incubated at RT for 2 h, after which the fluorescence was measured using a Perkin Elmer Viewlux multimode microplate imager (λexcitation = 324 nm, λemission = 393 nm). All compounds were tested in 10-point, 1:3 serial dilutions dose-response format starting with highest concentration of 100 µM. IC50 values were determined using non-linear regression analysis using the GraphPad Prism 8.0 suite of programs.

[1] = tested on: MMP-2, MMP-3, MMP-8, MMP-9, MMP-10, MMP-14, ADAM10, and ADAM17; assay: Selectivity panel of related metzincins; settings: all tested enzymes, Figure 4B
Experimental: as §1
All assays followed the same general protocol. […] Reactions were incubated at RT for 1 h, after which the fluorescence was measured using the Synergy H4 multimode microplate reader (Biotek Instruments) (λexcitation = 324 nm, λemission = 390 nm). […] IC50 values were determined using non-linear regression analysis using the GraphPad Prism 8.0 suite of programs.

Row | IC50 (human meprin β) | IC50 (ADAM17) [nM] | IC50 [1] [µM] | extent of meprin β inhibition (in words) (human meprin β; scale-up batch, higher doses tested, Figure 4A) | Compound
1 | 4.8 ± 0.5 µM | 200 ± 20 |  |  | CCCCC[C@H](CC(=O)NO)C(=O)N[C@H](C(=O)N1CCC[C@H]1CO)C(C)C [Actinonin, actinonin, reference compound]
2 | ≥ 70 µM and 70 µM | > 100000 | > 100 | only partial meprin β inhibition | COc1cc(OC)nc(SCc2nnc(SCC(=O)NO)n2-c2ccc(N(C)C)cc2)n1 [SR24717]
